Results published in US12325696B2, “Indazole derivative, preparation method therefor, and pharmaceutical application thereof” (JIANGSU HENGRUI MEDICINE CO., LTD., priority 2019, dated 2025).

target: Nav1.5 ion channel (Homo sapiens (Human), UniProt Q14524); assay: Manual patch clamp inhibition of Nav1.5 current in HEK293 cell; format: cell-based; conditions: whole-cell patch clamp, read-out: IC50 on inhibiting the Nav1.5 channel activity
Description: The purpose of the experiment is to investigate the effect of the compounds on Nav1.5 ion channel in an […] experiment. Nav1.5 ion channel is stably expressed on HEK293 cell. After the Nav1.5 current becomes stable, the Nav1.5 currents before and after the administration of the compound are compared so as to obtain the effect of the compound on the Nav1.5 ion channel.
Extracellular fluid: NaCl, 137 mM; KCl, 4 mM; CaCl2), 1.8 mM; MgCl2, 1 mM; HEPES, 10; glucose, 10 mM; pH 7.4 (NaOH titration).
Intracellular fluid: aspartic acid, 140 mM; MgCl2, 2 mM; EGTA, 11 mM; HEPES, 10 mM; pH 7.2 (CsOH titration).
The test compound was dissolved in dimethyl sulfoxide (DMSO) at a stock concentration of 9 mM. The stock solution of the test compound was dissolved in the extracellular fluid on the day of the test and formulated into the required concentration.
1) The compound was formulated into solutions with specified concentrations. The solutions were added to the pipelines respectively in order from high to low concentration, and the pipelines were marked.
2) The cell was transferred to the perfusion tank, and perfused with the extracellular fluid. The intracellular fluid was stored in small batches in a −80° C. refrigerator, and melted on the day of the experiment. The electrode was pulled with PC-10 (Narishige, Japan). Recording was carried out with the whole-cell patch clamp, and the noise was filtered at one-fifth of the sampling frequency.
3) All compounds were perfused with a perfusion system that uses its own gravity. Each concentration was tested in at least two cells. After the current stabilized (or after 5 minutes), the blocking effect of the compound was calculated by comparing the changes in the current before and after the administration of the compound.
The cell was clamped at −80 mV. The cell was depolarized to Vhalf with a square wave lasting 8 milliseconds, hyperpolarized to −120 mV with a square wave lasting 20 milliseconds, and depolarized to −10 mV with a square wave lasting 20 milliseconds to obtain the Nav1.5 current. This procedure was repeated every 15 seconds. The maximum current caused by the −10 mV square wave was measured. After the current became stable, the test compound was perfused. After the response became stable, the blocking intensity was calculated.
The data was stored in the computer system for analysis. Data collection and analysis were carried out by pCLAMP 10 (Molecular Devices, Union City, CA). Stable current means that the absolute average value of the peak current of four consecutive scans exceeds 200 pA and the CV value is less than 10%, or the average value of the peak current of four consecutive scans is between 200 pA and 50 pA and the CV value is less than 30%. The average value of the last four current peaks after the current stabilized was used to calculate the effect of the compound at the concentration.

Sequence of Nav1.5 ion channel (Q14524 whole entry): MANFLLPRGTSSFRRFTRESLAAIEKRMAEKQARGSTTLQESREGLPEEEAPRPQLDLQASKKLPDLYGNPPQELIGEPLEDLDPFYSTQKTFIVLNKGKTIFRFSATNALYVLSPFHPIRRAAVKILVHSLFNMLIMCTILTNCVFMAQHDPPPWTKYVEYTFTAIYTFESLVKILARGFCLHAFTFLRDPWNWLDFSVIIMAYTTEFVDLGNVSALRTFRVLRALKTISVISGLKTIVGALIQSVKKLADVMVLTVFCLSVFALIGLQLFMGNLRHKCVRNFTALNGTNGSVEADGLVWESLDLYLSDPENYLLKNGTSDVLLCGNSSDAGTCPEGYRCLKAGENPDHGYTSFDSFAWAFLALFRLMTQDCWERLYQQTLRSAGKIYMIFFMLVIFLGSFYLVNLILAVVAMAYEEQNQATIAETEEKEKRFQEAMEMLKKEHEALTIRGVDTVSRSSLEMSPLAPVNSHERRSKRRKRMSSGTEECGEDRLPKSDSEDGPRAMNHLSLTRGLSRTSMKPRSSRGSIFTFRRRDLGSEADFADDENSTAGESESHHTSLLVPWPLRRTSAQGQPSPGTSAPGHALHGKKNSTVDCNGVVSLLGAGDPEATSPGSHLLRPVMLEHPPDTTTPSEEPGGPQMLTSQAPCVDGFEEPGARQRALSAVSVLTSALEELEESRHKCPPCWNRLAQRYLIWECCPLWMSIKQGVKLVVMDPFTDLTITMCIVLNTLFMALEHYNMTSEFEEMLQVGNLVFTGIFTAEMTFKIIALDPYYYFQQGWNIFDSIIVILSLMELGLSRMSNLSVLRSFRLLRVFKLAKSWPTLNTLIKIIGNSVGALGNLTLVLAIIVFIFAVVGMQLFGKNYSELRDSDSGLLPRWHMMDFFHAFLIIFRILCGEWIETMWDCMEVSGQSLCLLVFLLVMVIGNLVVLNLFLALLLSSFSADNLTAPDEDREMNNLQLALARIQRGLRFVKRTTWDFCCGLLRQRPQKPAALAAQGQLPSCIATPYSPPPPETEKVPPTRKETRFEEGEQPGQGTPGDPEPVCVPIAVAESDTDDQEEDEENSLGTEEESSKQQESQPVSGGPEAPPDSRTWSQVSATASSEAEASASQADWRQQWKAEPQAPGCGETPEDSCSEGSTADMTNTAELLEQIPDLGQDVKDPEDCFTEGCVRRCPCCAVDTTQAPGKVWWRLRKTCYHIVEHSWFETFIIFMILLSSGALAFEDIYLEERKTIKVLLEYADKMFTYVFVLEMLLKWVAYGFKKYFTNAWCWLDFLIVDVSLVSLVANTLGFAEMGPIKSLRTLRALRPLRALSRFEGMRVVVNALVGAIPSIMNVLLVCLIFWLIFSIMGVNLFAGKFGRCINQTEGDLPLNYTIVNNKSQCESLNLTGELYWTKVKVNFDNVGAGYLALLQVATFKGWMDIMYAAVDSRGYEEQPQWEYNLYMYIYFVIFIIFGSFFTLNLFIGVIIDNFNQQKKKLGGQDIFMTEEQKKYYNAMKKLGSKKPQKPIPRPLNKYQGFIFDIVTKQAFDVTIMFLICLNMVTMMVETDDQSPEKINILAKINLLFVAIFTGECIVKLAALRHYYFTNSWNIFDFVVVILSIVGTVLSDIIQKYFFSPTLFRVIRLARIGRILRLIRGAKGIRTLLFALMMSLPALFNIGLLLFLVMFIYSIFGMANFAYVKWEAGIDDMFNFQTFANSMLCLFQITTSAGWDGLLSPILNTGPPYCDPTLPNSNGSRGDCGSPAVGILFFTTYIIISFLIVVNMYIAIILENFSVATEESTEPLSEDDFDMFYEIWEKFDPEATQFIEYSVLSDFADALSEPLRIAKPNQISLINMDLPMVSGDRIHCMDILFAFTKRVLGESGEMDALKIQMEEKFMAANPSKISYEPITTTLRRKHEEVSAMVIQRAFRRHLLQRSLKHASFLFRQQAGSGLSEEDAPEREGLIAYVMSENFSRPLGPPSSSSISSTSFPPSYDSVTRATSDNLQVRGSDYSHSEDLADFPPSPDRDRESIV

Structure (SMILES)	IC50
O=C(/C=C/CNC1(COc2ccc(/C(=C(/CC(F)(F)F)c3ccccc3)c3ccc4[nH]nc(F)c4c3)cn2)CC1)N1CCOCC1 [Example 1, (E)-1-Morpholino-4-((1-(((5-((Z)-4,4,4-trifluoro-1-(3-fluoro-1H-indazol-5-yl)-2-phenylbut-1-en-1-yl)pyridin-2-yl)oxy)methyl)cyclopropyl)amino)but-2-en-1-one]	> 10 µM
CN(C)C(=O)/C=C/CNC1(COc2ccc(/C(=C(/CC(F)(F)F)c3ccccc3)c3ccc4[nH]nc(F)c4c3)cn2)CC1 [Example 39, (E)-N,N-Dimethyl-4-((1-(((5-((Z)-4,4,4-trifluoro-1-(3-fluoro-1H-indazol-5-yl)-2-phenylbut-1-en-1-yl)pyridin-2-yl)oxy)methyl)cyclopropyl)amino)but-2-enamide]	8.2 µM
O=C(/C=C/CNC1(COc2ccc(/C(=C(/CC(F)(F)F)c3ccccc3)c3ccc4[nH]nc(F)c4c3)cn2)CC1)N1CC[C@H](O)C1 [Example 41, (E)-1-((S)-3-Hydroxypyrrolidin-1-yl)-4-((1-(((5-((Z)-4,4,4-trifluoro-1-(3-fluoro-1H-indazol-5-yl)-2-phenylbut-1-en-1-yl)pyridin-2-yl)oxy)methyl)cyclopropyl)amino)but-2-en-1-one]	5.3 µM
O=C(/C=C/CNC1(COc2ccc(/C(=C(/CC(F)(F)F)c3ccccc3)c3ccc4[nH]nc(F)c4c3)cn2)CC1)N1CC(O)C1 [Example 40, (E)-1-(3-Hydroxyazetidin-1-yl)-4-((1-(((5-((Z)-4,4,4-trifluoro-1-(3-fluoro-1H-indazol-5-yl)-2-phenylbut-1-en-1-yl)pyridin-2-yl)oxy)methyl)cyclopropyl)amino)but-2-en-1-one]	11.5 µM
